Active and inactive are the calls of the source.

The target of assay [1] is T1, RNA-binding protein pos-1 (Caenorhabditis elegans, UniProt G5EF15).
T1 sequence (G5EF15 whole entry): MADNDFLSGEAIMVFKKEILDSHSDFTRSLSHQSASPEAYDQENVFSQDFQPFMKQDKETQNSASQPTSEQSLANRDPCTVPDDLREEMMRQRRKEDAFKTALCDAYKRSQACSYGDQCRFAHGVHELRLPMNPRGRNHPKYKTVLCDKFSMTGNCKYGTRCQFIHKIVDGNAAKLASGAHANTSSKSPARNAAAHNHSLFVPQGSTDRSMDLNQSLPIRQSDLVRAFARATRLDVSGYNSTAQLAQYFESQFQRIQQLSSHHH
Put plainly: inhibitors of POS-1/mex-3 RNA binding, dose response, biochemical, fluorescence polarization (AID 1964).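 Note: purified POS-1 fused to maltose binding protein made in E. coli; potency of compounds blocking POS-1 binding to fluorescent RNA.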 On the technique in general: In fluorescence polarisation assays a small probe gives low polarisation when free and higher when bound to something large.

Assay [2] addresses T2, Zinc finger protein mex-5 (Caenorhabditis elegans, UniProt Q9XUB2).
T2 sequence (Q9XUB2 whole entry): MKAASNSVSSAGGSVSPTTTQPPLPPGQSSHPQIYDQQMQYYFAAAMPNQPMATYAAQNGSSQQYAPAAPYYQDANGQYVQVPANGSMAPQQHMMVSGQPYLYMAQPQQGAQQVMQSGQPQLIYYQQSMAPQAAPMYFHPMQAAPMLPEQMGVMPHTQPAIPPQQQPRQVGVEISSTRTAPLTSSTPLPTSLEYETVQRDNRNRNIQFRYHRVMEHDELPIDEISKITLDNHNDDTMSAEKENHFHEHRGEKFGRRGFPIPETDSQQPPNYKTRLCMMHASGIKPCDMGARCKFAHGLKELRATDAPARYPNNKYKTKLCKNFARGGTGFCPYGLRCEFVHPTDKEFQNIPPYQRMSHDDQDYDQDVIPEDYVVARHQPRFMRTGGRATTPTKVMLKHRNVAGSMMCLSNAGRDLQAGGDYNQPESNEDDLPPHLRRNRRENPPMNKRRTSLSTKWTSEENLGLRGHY
Nature of the assay: MEX-5/TCR-2 RNA interaction inhibitors, dose response, biochemical, C. elegans, fluorescence polarization (AID 1960).

Assay [3] addresses Peroxisome proliferator-activated receptor gamma (Homo sapiens, UniProt P37231). Nature of the assay: PPARg partial agonists, dose response, cell-based, luminescence, assay provider (AID 504447). The assay is classed as functional.
The target in assay [4] is T3, Corticotropin-releasing factor receptor 2/Corticotropin-releasing factor-binding protein (Homo sapiens, UniProt P24387+Q13324).
T3 sequence (Q13324 whole entry): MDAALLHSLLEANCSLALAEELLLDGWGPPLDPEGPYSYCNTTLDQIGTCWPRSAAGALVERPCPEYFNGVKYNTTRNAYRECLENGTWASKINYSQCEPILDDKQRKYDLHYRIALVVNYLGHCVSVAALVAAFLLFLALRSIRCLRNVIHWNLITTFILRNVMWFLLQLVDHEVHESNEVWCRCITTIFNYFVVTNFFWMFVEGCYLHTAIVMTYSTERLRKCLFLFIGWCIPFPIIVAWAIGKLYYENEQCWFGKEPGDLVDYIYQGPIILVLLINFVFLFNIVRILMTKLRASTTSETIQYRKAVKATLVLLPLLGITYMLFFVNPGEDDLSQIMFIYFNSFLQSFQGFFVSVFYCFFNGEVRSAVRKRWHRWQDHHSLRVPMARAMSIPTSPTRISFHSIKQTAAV
T3 sequence (P24387 whole entry): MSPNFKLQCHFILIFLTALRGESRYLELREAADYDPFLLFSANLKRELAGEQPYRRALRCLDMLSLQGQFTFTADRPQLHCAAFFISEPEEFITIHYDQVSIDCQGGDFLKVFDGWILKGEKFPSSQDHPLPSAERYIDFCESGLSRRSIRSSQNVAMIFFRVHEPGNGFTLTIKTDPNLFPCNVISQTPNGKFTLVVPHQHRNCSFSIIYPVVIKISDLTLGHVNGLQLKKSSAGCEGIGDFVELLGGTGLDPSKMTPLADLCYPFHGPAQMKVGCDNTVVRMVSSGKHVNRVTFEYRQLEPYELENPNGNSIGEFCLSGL
Nature of the assay: activators of CRF receptor 2 with binding protein – uHTS hits, confirmation (AID 602473). As to conditions: read-out: EC50_Mean. Type of assay: functional.

The target of assay [5] is Large T antigen (Simian virus 40, UniProt P03070). The assay is classed as functional, Betapolyomavirus macacae.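 Note: Confirmatory-stage PubChem screen for compounds that inhibit SV40 T antigen.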
Assay [6] concerns the target Induced myeloid leukemia cell differentiation protein Mcl-1 (Homo sapiens, UniProt Q07820). Nature of the assay: MCL1-BIM BH3 interaction inhibitors, dose response, biochemical, fluorescence polarization, BIM-BH3 peptide, 1536-well (AID 2217).
Assay [7] deals with Bcl-2-like protein 1 (Homo sapiens, UniProt Q07817). Put plainly: BCL-XL inhibitors, dose response, selectivity assay for MCL1 inhibitor project, biochemical, fluorescence polarization, 1536-well (AID 2218).
In assay [8] the target is Glucose-6-phosphate 1-dehydrogenase (Homo sapiens, UniProt P11413). Nature of the assay: human G6PD enzyme inhibitors, dose response, selectivity assay for P. falciparum G6PD inhibitor project, biochemical, fluorescence (AID 504792). Type of assay: functional.
Assay [9] has as its target Intestinal-type alkaline phosphatase (Homo sapiens, UniProt P09923). Put plainly: activation of human intestinal alkaline phosphatase – biochemical, dose response (AID 488873). The assay is classed as functional.
Assay [10] deals with Intestinal-type alkaline phosphatase (Mus musculus, UniProt P24822). Put plainly: mouse intestinal alkaline phosphatase activators, dose response, biochemical, luminescence, uHTS hits (AID 488783). Type of assay: functional.
In assay [11] the target is T4, Alkaline phosphatase, tissue-nonspecific isozyme (Homo sapiens, UniProt P05186).
T4 sequence (P05186 whole entry): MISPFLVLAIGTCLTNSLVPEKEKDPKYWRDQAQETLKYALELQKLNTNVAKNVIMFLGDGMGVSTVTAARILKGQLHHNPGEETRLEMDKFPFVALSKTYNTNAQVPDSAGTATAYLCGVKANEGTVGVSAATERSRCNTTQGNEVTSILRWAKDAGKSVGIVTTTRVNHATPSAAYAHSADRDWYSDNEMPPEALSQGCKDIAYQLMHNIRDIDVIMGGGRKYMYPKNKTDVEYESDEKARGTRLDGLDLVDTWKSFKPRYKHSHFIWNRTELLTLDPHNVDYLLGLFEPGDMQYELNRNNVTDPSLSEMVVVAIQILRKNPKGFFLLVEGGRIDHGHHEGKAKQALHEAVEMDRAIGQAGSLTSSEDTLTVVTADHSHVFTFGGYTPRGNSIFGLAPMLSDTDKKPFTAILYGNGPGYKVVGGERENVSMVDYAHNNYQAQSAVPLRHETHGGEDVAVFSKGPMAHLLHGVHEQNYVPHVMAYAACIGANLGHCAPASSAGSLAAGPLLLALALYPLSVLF
Put plainly: TNAP enzyme activators, dose response, selectivity assay for mouse IAP activator project, biochemical, TNAP isozyme, mouse IAP uHTS hits (AID 488880). The assay is classed as functional.

The target of assay [12] is Heat shock protein HSP 90-alpha (Homo sapiens, UniProt P07900). Type of assay: functional, organism-based.
Assay [13] relates to Vero. Nature of the assay: cells. The assay is classed as functional. The following applies: Chlorocebus sabaeus.
Assay [14] concerns the target SUMO-activating enzyme (Homo sapiens, UniProt Q9UBT2). Nature of the assay: SUMOylation inhibitor hit validation, confirmation, SUMOylation inhibitor project, biochemical, AlphaScreen (AID 2018). The assay is classed as functional. In general terms: In Alpha technology, singlet oxygen from a donor bead excites a nearby acceptor bead.
Assay [15] concerns the target Troponin, cardiac muscle (Homo sapiens, UniProt P19429+P45379+P63316). Nature of the assay: Fluorescence-based biochemical high throughput dose response assay for activators of the calcium sensitivity of cardiac Regulated Thin Filaments (RTF). [Related pubchem assays (depositor defined):AID493008, AID493018, AID504382, AID504383]. Type of assay: protein-complex assay.

Assay [16] concerns the target T5, E3 ubiquitin-protein ligase XIAP (Homo sapiens, UniProt P98170). Put plainly: Counter Screen using XIAP-Bir3 for Chemical Antagonists of Bir1/2 domains of IAP-family anti-apoptotic proteins. [Related pubchem assays (depositor defined):AID1018, AID1449, AID1514, AID1638, AID1749, AID1750, AID488957, AID488963]. (In general: The purpose of a counterscreen is to sort out artefacts and off-target activity.)

The target of assay [17] is T5, E3 ubiquitin-protein ligase XIAP. Nature of the assay: XIAP antagonists, biochemical, IAP family, fluorescence polarization (AID 1018). Type of assay: functional.
Assay [18] addresses Kappa-type opioid receptor (Homo sapiens, UniProt P41145). Put plainly: SAR analysis of small molecule agonists of the kappa opioid receptor via a luminescent beta-arrestin assay - Set 3. [Related pubchem assays (depositor defined):AID1777, AID1785, AID1786, AID1966, AID2133, AID2136, AID2284, AID2500]. Type of assay: functional.
Assay [19] addresses T6, Cannabinoid receptor 2 (Homo sapiens, UniProt P34972). Nature of the assay: SAR analysis of antagonists of the Cannabinoid Receptor 2 using an Image-Based Assay - Set 2. [Related pubchem assays (depositor defined):AID1961, AID1965]. The assay is classed as functional.
The target of assay [20] is G-protein coupled receptor 55 (Homo sapiens, UniProt Q9Y2T6). Nature of the assay: SAR analysis of selective Agonists of GPR55 using an Image-Based Assay - Set 2. [Related pubchem assays (depositor defined):AID1961, AID1965]. Type of assay: functional.
For assay [21], the target named is T6, Cannabinoid receptor 2. Nature of the assay: SAR analysis of agonists of the Cannabinoid Receptor 2 using an Image-Based Assay - Set 2. [Related pubchem assays (depositor defined):AID1961, AID1965]. Type of assay: functional.
For assay [22], the target named is T7, G-protein coupled receptor 35 (Homo sapiens, UniProt Q9HC97). Nature of the assay: SAR analysis of Agonists of the GPR35 Receptor using an Image-Based Assay - Set 3. [Related pubchem assays (depositor defined):AID1961, AID1965]. The assay is classed as functional.
Assay [23] concerns the target T8, Cannabinoid receptor 1 (Homo sapiens, UniProt P21554). Put plainly: SAR analysis of antagonists of the Cannabinoid Receptor 1 using an Image-Based Assay - Set 3. [Related pubchem assays (depositor defined):AID1961, AID1965]. The assay is classed as functional.
Assay [24] addresses T8, Cannabinoid receptor 1. Put plainly: SAR analysis of agonists of the Cannabinoid Receptor 1 using an Image-Based Assay - Set 3. [Related pubchem assays (depositor defined):AID1961, AID1965]. The assay is classed as functional.
Assay [25] concerns the target T7, G-protein coupled receptor 35. Nature of the assay: SAR analysis of Antagonists of the GPR35 Receptor using an Image-Based Assay - Set 4. [Related pubchem assays (depositor defined):[…]]. The assay is classed as functional.
In assay [26] the target is Voltage-dependent T-type calcium channel subunit alpha-1H (Homo sapiens, UniProt O95180). Put plainly: Cav3.2 T-type channel inhibitors, synthesized analogs, SAR follow-up, cell-based, synthetic library set 2, HEK293 HH8, Fluo-4 (AID 493023). Type of assay: functional.
Chain of Voltage-dependent T-type calcium channel subunit alpha-1H (O95180 whole entry): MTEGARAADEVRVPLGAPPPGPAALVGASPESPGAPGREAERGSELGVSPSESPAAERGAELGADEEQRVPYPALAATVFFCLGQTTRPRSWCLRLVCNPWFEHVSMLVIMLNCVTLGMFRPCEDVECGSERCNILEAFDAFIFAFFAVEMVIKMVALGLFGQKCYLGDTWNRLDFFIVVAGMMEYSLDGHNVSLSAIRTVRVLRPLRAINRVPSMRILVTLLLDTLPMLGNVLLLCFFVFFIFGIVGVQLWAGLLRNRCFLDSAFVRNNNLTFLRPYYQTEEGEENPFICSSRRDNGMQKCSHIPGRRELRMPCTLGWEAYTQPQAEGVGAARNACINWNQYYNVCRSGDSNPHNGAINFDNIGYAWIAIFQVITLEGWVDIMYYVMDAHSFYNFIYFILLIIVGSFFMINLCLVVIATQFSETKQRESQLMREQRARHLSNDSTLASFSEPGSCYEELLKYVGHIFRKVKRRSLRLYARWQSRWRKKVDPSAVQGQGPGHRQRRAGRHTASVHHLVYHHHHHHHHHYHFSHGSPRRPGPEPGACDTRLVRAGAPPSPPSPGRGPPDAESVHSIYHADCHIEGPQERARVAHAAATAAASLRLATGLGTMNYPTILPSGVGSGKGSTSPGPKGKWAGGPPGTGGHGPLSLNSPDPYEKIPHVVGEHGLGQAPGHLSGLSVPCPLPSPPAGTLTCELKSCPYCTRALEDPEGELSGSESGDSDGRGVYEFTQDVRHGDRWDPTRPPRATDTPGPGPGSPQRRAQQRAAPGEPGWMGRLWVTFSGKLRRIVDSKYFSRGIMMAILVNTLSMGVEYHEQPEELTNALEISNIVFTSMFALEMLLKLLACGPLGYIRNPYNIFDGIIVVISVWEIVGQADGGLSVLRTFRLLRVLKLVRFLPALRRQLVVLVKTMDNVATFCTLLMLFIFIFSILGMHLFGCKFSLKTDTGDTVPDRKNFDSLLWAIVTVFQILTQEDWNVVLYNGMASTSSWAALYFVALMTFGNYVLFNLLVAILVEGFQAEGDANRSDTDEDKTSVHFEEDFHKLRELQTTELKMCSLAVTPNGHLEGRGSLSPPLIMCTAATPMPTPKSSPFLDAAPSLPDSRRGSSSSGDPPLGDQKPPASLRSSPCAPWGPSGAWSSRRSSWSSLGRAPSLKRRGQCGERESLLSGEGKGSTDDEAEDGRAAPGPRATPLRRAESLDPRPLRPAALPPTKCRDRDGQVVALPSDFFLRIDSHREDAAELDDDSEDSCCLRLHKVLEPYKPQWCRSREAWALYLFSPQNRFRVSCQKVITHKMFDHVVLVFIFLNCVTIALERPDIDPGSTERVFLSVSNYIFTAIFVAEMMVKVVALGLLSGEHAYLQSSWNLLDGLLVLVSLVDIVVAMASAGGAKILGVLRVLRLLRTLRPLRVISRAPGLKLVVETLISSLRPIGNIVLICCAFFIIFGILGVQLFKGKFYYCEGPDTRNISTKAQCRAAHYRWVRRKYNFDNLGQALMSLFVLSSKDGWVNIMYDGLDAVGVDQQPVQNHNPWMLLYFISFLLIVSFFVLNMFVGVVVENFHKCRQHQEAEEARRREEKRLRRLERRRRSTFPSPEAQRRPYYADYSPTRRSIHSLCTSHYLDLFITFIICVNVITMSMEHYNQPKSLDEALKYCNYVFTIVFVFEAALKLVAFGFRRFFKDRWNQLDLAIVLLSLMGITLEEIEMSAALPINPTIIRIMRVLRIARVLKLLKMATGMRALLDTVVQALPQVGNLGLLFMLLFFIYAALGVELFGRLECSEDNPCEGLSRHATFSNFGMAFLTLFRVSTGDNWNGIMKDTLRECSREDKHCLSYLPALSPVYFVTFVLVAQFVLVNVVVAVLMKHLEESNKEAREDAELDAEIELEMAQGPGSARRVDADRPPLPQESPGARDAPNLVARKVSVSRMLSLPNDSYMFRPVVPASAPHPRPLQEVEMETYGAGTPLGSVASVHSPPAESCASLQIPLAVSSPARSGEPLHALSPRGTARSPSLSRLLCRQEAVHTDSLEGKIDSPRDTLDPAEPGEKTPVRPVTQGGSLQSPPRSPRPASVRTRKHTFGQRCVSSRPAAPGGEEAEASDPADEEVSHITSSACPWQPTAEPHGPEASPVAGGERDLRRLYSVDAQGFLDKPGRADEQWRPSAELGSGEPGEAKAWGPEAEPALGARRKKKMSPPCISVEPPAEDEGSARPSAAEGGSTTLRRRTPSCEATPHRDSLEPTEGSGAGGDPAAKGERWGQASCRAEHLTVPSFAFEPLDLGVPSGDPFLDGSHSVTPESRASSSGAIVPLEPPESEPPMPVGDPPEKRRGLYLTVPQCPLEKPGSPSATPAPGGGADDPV

T5 sequence (P98170 whole entry): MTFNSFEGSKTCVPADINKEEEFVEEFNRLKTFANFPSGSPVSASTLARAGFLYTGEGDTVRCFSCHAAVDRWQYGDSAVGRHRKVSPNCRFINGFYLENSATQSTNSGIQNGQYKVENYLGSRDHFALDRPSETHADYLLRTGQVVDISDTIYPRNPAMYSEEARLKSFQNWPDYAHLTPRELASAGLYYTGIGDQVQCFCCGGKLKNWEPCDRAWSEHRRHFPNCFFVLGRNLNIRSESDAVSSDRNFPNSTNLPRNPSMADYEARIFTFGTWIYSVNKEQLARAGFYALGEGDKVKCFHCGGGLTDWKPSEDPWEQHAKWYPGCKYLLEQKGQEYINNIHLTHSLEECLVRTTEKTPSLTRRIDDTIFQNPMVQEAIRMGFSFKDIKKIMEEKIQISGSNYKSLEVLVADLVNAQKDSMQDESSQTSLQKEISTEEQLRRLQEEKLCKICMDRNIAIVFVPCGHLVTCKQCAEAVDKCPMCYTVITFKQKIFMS
T7 sequence (Q9HC97 whole entry): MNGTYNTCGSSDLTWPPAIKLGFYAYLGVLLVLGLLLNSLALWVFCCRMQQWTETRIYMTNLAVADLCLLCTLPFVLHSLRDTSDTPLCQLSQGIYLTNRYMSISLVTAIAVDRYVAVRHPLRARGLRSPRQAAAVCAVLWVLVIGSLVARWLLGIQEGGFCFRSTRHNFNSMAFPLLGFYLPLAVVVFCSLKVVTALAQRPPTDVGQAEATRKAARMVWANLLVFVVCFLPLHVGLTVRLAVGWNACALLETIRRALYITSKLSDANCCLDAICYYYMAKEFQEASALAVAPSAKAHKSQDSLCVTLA
T6 sequence (P34972 whole entry): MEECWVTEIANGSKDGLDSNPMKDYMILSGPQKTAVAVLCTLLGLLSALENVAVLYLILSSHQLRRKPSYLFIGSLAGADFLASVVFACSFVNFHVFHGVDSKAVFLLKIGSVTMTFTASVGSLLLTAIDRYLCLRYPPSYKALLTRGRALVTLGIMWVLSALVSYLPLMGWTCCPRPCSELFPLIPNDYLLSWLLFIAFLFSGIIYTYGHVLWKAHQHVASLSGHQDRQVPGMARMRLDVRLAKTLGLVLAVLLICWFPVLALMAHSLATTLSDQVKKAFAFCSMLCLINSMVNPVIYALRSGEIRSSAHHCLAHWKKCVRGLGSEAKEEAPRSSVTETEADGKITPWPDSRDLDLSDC
T8 sequence (P21554 whole entry): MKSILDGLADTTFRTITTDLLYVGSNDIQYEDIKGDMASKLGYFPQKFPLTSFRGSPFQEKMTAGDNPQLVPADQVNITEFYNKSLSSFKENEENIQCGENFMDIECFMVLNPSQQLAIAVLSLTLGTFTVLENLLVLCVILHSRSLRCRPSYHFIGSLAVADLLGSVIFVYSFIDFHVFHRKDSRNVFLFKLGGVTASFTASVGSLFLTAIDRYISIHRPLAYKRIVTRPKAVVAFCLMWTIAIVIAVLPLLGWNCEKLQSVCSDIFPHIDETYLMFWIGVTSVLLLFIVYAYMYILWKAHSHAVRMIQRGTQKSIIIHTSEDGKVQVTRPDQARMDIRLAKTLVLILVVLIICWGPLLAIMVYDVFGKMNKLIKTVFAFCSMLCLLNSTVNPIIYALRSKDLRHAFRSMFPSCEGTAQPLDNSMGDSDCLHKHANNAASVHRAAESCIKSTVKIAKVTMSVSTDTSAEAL
Chain of Large T antigen (P03070 whole entry): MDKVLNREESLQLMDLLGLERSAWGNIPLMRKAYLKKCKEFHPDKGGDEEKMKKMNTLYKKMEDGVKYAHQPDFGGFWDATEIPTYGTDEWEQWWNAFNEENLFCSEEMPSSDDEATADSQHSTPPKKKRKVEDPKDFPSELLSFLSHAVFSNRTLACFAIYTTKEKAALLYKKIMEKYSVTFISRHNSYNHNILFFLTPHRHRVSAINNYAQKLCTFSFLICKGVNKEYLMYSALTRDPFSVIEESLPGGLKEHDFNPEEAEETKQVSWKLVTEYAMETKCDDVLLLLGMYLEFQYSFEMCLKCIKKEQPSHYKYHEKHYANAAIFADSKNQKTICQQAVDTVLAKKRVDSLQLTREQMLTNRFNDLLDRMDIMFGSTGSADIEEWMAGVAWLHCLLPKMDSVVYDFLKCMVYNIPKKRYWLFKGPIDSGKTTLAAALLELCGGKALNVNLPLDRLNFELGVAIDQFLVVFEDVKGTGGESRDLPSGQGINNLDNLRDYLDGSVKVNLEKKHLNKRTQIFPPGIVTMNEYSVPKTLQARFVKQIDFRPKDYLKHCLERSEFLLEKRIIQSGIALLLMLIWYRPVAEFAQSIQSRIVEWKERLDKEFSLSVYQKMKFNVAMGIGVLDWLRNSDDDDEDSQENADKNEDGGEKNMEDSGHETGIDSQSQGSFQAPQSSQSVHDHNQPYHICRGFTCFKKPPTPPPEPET
Chain of Bcl-2-like protein 1 (Q07817 whole entry): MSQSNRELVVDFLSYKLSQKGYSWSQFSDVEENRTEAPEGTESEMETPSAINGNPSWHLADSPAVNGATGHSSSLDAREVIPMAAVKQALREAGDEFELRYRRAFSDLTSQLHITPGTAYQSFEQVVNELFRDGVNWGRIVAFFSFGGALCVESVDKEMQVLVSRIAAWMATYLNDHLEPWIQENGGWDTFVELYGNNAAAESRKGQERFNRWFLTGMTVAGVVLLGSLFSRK

In the case of `COc1ccccc1N1C(=O)C2C(C(=O)c3ccccc3)=NN(c3ccc(C)cc3)C2C1=O` (stereo unspecified), the EC50 in [1] was 13.7 µM (inconclusive); in [2], 14.3 µM (active); in assay [3], 1.7 µM (active); in [4], 5.27 µM (active).
By IC50 is commonly meant the concentration that gives 50% inhibition. For orientation: AC50 means the concentration giving half of the maximal activity seen. Usually CC50 stands for the concentration that lowers cell viability or growth by half. Turning to `O=C1NC(=S)NC(=O)C1=Cc1ccc(Br)s1`, the IC50 was 64.5 µM (active) in [5], > 12.1 µM (not active) in assay [6], > 109 µM (not active) in assay [7] and 36.4 µM (inactive) in assay [8]. Further, the EC50 is 76.8 µM (active) in assay [9], 59.7 µM (active) in assay [10] and 61.6 µM (active) in [11]. Further, the concentration at half-maximal activity (AC50) in [12] is 25.6 µM (active). In addition, the cytotoxic concentration (CC50) in assay [13] is 21.4 µM (active).
In the case of `Cn1c2ccccc2c2cnn(CC(=O)Nc3ccc(Cl)cc3)c(=O)c21`, the IC50 in [14] is 46 µM (active).
Consider `O=C(O)CCC(=O)Nc1cc(C(F)(F)F)cc(C(F)(F)F)c1`, for which the EC50 in [15] was > 71.4 µM (inactive).
In the case of `C=CCNC(=O)/C(C#N)=C/c1cn(-c2ccccc2)nc1-c1ccc(OC)c([N+](=O)[O-])c1`, the IC50 in assay [16] is > 100 µM (inactive); in assay [17], > 100 µM (not active).
Turning to `Brc1ccc(CSc2nnc(-c3ccccn3)n2Cc2cccnc2)cc1`, the EC50 in assay [18] was 8.51 µM (active).
Regarding `COc1ccc(-c2csc(NC(=O)CSc3nnc4c(C)cc5cc6c(cc5n34)OCO6)n2)cc1`, the IC50 in [19], in [23] and in assay [25] was > 32 µM (inactive) throughout. Besides, the EC50 in [20], in [21], in assay [22] and in [24] was > 32 µM (inactive) throughout.
`CC(C)(C)CCN1CCC[C@@H](NC(=O)c2ccc(Cl)cc2Cl)C1`: the EC50 in assay [26] was 10 µM (active).

(Values after ChEMBL document CHEMBL1201862, “PubChem BioAssay data set” (2004).)
